Data taken from patent publication US20240277658A1, “NLRP3 ACTIVATORS FOR USE IN THE TREATMENT OF INFECTIOUS DISEASES OR CANCER BY ACTIVATING NLRP3 INFLAMMASOME” (ALBERT-LUDWIGS-UNIVERSITÄT FREIBURG, priority 2020, published 2024).
“And” between values parts separate entries of the source, which are not always exact repeats. Equal entries are not always repeated. Where two headings read alike, the source gives them in different places.

How the values were obtained:
[1] = test system: BMDCs; test: LDH release (lytic cell death, pyroptosis) from LPS-primed BMDCs; type: cell-based, mouse; conditions: for Average (% positive control): LDH release; for cytotoxicity at 50 µM / cytotoxicity at 25 µM / cytotoxicity at 100 µM: Mus musculus, BMDC
Summary of the method: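 LDH released into medium, detected colorimetrically, served as the pyroptosis read-out in triplicate. LPS-primed (50 ng ml^−1, 3 h) murine bone marrow-derived dendritic cells received test compounds, typically 50 μM, or nigericin (5 μM), R837 or CL097 (100 μM) for 3 hours.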

[2] = molecular target: T1, NLRP3 inflammasome (Mus musculus, UniProt Q8R4B8); test: IL-1β release from LPS-primed BMDCs (ELISA) as readout of NLRP3 inflammasome activation; type: cell-based
T1 construct: endogenous in cells; host or cells: primary mouse bone marrow-derived dendritic cells (BMDCs), LPS-primed
Summary of the method: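 NLRP3 inflammasome activation was read out as IL-1β released into the supernatant, measured by ELISA. Murine BMDCs were primed with LPS (50 ng ml^−1, 3 hours), then incubated with compounds for 3 hours, with each condition run in three technical replicates. Nigericin at 5 μM acted as the positive control activator, and IL-1β release was also expressed as a percentage of that control.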

[3] = compound 50 μM, positive control nigericin 5 μM
[4] = compound 50 μM, LPS-primed BMDCs, read-out: Average LDH release (% of max.)
[5] = single replicates, compound 50 μM, LPS-primed BMDCs, read-out: LDH release (% of max.)
[6] = IL-1β release, compound 50 μM, positive control nigericin 5 μM
[7] = compound 50 μM, LPS-primed BMDCs
[8] = single replicates, compound 50 μM, LPS-primed BMDCs
[9] = 25 μM, positive control EN22 25 μM
[10] = 50 μM, positive control EN22 25 μM
[11] = 100 μM, positive control EN22 25 μM
[12] = 25 μM, EN11 series table, read-out: Average LDH release (% of max.)
[13] = 25 μM, individual replicate values, EN11 series table, read-out: LDH release (% of max.)
[14] = 50 μM, EN11 series table, read-out: Average LDH release (% of max.)
[15] = 50 μM, individual replicate values, EN11 series table, read-out: LDH release (% of max.)
[16] = 100 μM, individual replicate values, read-out: LDH release (% of max.)
[17] = 100 μM, read-out: Average LDH release (% of max.)
[18] = 25 μM, individual replicate values, EN11 series table
[19] = 50 μM, individual replicate values, EN11 series table
[20] = 100 μM, individual replicate values
[21] = IL-1β, 25 μM, positive control EN22 25 μM
[22] = IL-1β, 50 μM, positive control EN22 25 μM
[23] = IL-1β, 100 μM, positive control EN22 25 μM

T1 sequence (Q8R4B8 whole entry): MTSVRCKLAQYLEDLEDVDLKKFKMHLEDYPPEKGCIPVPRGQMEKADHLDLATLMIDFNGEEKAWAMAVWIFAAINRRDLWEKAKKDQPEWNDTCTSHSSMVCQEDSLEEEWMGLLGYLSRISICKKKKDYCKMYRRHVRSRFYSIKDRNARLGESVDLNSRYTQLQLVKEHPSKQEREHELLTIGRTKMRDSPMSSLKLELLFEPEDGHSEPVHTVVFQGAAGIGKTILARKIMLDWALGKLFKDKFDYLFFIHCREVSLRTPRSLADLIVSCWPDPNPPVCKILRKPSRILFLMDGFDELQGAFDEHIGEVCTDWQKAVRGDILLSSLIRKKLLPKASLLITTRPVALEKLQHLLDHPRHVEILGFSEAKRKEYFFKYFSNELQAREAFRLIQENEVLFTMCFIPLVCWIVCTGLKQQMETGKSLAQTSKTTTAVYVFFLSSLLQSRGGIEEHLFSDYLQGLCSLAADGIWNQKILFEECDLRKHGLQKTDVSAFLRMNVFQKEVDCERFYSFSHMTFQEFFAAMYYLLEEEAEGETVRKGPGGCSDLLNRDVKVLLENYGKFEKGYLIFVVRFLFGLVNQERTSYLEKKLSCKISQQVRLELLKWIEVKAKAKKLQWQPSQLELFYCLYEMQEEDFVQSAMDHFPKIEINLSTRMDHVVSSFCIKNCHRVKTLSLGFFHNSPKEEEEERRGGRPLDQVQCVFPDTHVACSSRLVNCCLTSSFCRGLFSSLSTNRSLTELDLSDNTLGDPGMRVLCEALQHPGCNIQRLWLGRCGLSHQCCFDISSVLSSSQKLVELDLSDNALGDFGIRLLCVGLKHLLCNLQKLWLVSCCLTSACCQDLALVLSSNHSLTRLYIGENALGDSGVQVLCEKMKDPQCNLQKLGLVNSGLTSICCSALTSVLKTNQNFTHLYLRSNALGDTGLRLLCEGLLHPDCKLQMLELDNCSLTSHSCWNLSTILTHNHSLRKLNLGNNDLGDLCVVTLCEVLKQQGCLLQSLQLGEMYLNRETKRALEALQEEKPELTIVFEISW

SMILES | Average (% positive control) [2, 6] [% positive control] | Average IL-1β [2, 7] [ng/mL] | Average IL-1β ([2]; 25 μM, EN11 series table) [ng/mL] | IL-1β [2, 18] [ng/mL] | Average IL-1β ([2]; 50 μM, EN11 series table) [ng/mL] | Average IL-1β ([2]; 100 μM) [ng/mL] | Average (% positive control) [1, 3] [% positive control] | cytotoxicity at 50 µM [1, 4] [%] | cytotoxicity at 50 µM [1, 5] [%] | IL-1β [2, 8] | Average (% positive control) [1, 9] [% positive control] | Average (% positive control) [1, 10] [% positive control] | Average (% positive control) [1, 11] [% positive control] | cytotoxicity at 25 µM [1, 12] [%] | cytotoxicity at 25 µM [1, 13] [%] | cytotoxicity at 50 µM [1, 14] [%] | cytotoxicity at 50 µM [1, 15] [%] | cytotoxicity at 100 µM [1, 16] [%] | cytotoxicity at 100 µM [1, 17] [%] | IL-1β [2, 19] | also measured
COc1ccc(F)cc1NC(=O)NC(c1nc(-c2cccnc2)no1)C(C)C (stereo not drawn) [L01.007, 1-(5-fluoro-2-methoxy-phenyl)-3-{2-methyl-1-[3-(pyridin-3-yl)-1,2,4-oxadiazol-5-yl]propyl}-urea] | 16.422 | 1.177 |  |  |  |  | 27.756 | 20.3 | 17.8 | 0.859 ng/mL and 1.572 ng/mL and 1.101 ng/mL |  |  |  |  |  |  |  |  |  |  | 
O=C(Nc1ccc2ncccc2c1)NC1CCCCC1 [EN11-02, 1-cyclohexyl-3-(quin-olin-6-yl)urea] |  |  | 0.015 | 0.015 | 0.042 | 0.050 |  |  |  |  | 20.897 | 21.105 | 19.808 | 10.6 | 10.8 | 10.7 | 10.4 | 10.1 | 10.1 | 0.040 ng/mL and 0.050 ng/mL and 0.036 ng/mL | IL-1β [2, 20]: 0.053 ng/mL and 0.052 ng/mL and 0.046 ng/mL; Average (% positive control) [2, 21]: 1.019 % positive control; Average (% positive control) [2, 22]: 2.832 % positive control; Average (% positive control) [2, 23]: 3.424 % positive control
O=C(NCCc1ccccc1)Nc1ccc2ncccc2c1 [EN11-07, 1-(2-phenylethyl)-3-(quinolin-6-yl)urea] |  |  | 0.000 | 0.000 | 0.000 | 0.053 |  |  |  |  | 27.283 | 28.451 | 26.529 | 13.9 | 13.4 | 14.5 | 14.4 | 11.4 | 13.5 | 0.000 ng/mL | IL-1β [2, 20]: 0.059 ng/mL and 0.052 ng/mL and 0.049 ng/mL; Average (% positive control) [2, 21]: 0.000 % positive control; Average (% positive control) [2, 22]: 0.000 % positive control; Average (% positive control) [2, 23]: 3.621 % positive control

The next lines start with results.

Average (% positive control) [2, 6] [% positive control] | Average IL-1β [2, 7] [ng/mL] | Average IL-1β ([2]; 25 μM, EN11 series table) [ng/mL] | IL-1β [2, 18] [ng/mL] | Average IL-1β ([2]; 50 μM, EN11 series table) [ng/mL] | Average IL-1β ([2]; 100 μM) [ng/mL] | SMILES | Average (% positive control) [1, 3] [% positive control] | cytotoxicity at 50 µM [1, 4] [%] | cytotoxicity at 50 µM [1, 5] [%] | IL-1β [2, 8] | Average (% positive control) [1, 9] [% positive control] | Average (% positive control) [1, 10] [% positive control] | Average (% positive control) [1, 11] [% positive control] | cytotoxicity at 25 µM [1, 12] [%] | cytotoxicity at 25 µM [1, 13] [%] | cytotoxicity at 50 µM [1, 14] [%] | cytotoxicity at 50 µM [1, 15] [%] | cytotoxicity at 100 µM [1, 16] [%] | cytotoxicity at 100 µM [1, 17] [%] | IL-1β [2, 19] | also measured
4.526 | 0.324 |  |  |  |  | O=C1CN(c2ccccc2)C(=O)N1Cc1nc(-c2cccs2)no1 [L01.089, 1-phenyl-3-{[3-(thio-phen-2-yl)-1,2,4-oxadiazol-5-yl]meth-yl}imidazolidine-2,4-dione] | 10.402 | 7.61 | 8.67 | 0.313 ng/mL and 0.316 ng/mL and 0.344 ng/mL |  |  |  |  |  |  |  |  |  |  | 
3.697 | 0.265 |  |  |  |  | COc1ccccc1NC(=O)NCc1nc(-c2cccnc2)no1 [L01.043, 1-(2-methoxyphenyl)-3-{[3-(pyridin-3-yl)-1,2,4-oxadiazol-5-yl]methyl}-urea] | 11.039 | 8.08 | 8.07 | 0.282 ng/mL and 0.272 ng/mL and 0.242 ng/mL |  |  |  |  |  |  |  |  |  |  | 
5.130 | 0.368 |  |  |  |  | Cc1cc(NC(=O)Nc2ccccc2)ccc1N1CCCC1 [L01.025, 3-[3-methyl-4-(pyrrol-idin-1-yl)phenyl]-1-phenylurea] | 19.631 | 14.4 | 15 | 0.333 ng/mL and 0.280 ng/mL and 0.490 ng/mL |  |  |  |  |  |  |  |  |  |  | 
